This is an account of results in patent US20240401146A1, “METHODS FOR PREDICTING AND IMPROVING THE EFFICACY OF MCL-1 INHIBITOR THERAPY” (INSTITUT NATIONAL DE LA SANTÉ ET DE LA RECHERCHE MÉDICALE, priority 2021, published 2024).

Structures are written as SMILES. Read-outs that look alike come from different tables or passages of the source.

Assay [1] has as its system SUDHL-4 cells (BTG1 KO, BTG1 WT). Particulars: SUDHL-4 BTG1 KO versus BTG1 WT; 72 h exposure; 0 or 50 nM; FIG. 3C. The method, then:
(§1) TMD8 and SUDHL-4 were grown in Roswell Park Memorial Institute medium, GlutaMAX Supplement ([…], Thermofisher), supplemented with 10% FBS, 1% penicillin G/streptomycin. Cells were grown in incubators at 37 C, in a 5% CO2 atmosphere.
(§2) TMD8 and SUDHL-4 cells expressing cas9 were generated by transduction with lentiV-Cas9-blast virus (Addgene #125592, Massachusetts, USA), and selected with 2.5 μg/ml blasticidin for 7 days. […] Cells were selected with puromycin for 7 days, and GFP expression was evaluated with flow cytometry. BTG1 inactivation was validated by Western Blotting after 1 week. BTG1 rescue cell were derived from TMD8 BTG1 KO cells infected with murine BTG1 cDNA (100% protein homology with human) in a mcherry-HIV-based virus. GFP and mcherry positive cells were sorted on a FACS ARIA™ cell sorter (BD biosciences, San Jose, CA).
(§3) The high affinity MCL-1 specific inhibitor S63845 (Kotschy et al., 2016) was purchased from Selleck Chemical (München, Germany). For in vitro study, it was dissolved in DMSO at a concentration of lmmol/L. DMSO was also used as a vehicle control in the in vitro study. For cell viability assessment, 100 000 cells were seeded in 24 well plate and incubated for 72 h with either S63845 or DMSO. Culture medium was used for further dilutions (typically 5 and 50 nM). For cell viability assessment, cells were stained with Annexin V-APC and propidium iodide, analyzed on a FACS LSRII™ (BD biosciences, San Jose, CA).

Assay [2] has as its system TMD8 cells (BTG1 KO, WT, rescue, mutated rescues). Particulars: 72 h exposure, 0 or 50 nM, FIG. 3B. The method, then: as §1, §2, §3

For the compound `Cc1c(-c2c(-c3ccc(F)o3)sc3ncnc(O[C@H](Cc4ccccc4OCc4ccnn4CC(F)(F)F)C(=O)O)c23)ccc(OCCN2CCN(C)CC2)c1Cl` [S63845], the “Proportion of apoptotic cells (Annexin V staining)” value in assay [1] is “confirmed the link between BTG1 inactivation and sensitivity to MCL-1”; in assay [2] (TMD8 BTG1 KO versus BTG1 WT) it was “induces significantly more apoptosis”. For the same compound, the “Increased sensitivity to MCL-1 inhibitor (proportion of apoptotic cells, Annexin V staining)” value is “abolished by the expression of BTG1 WT” in assay [2] (TMD8 BTG1 KO rescued with BTG1 WT) and “not by the expression of mutated BTG1” in assay [2] (TMD8 BTG1 KO rescued with mutated BTG1 (L26P, G66D or I115V)).
